ChEMBL document CHEMBL5036337 (J Nat Prod, 2021)
Values after ≈ are worked out from the molar mass of the structure shown.

How the values were obtained:
[1] = system: CAL-27; assay: cells; type: functional, cell-based; details: Homo sapiens, CAL-27, 72 h
[2] = system: SCC-9; assay: cells; type: functional, cell-based; details: Homo sapiens, SCC-9, 72 h
[3] = Stability in mouse blood assessed as compound recovery measured at 25 degC for 4 hrs
[4] = Stability in mouse blood assessed as compound remaining measured at 20 degC for 8 hrs
[5] = Stability in mouse blood assessed as compound remaining measured at - 80 degC for 4 months
[6] = Half life in C57BL/6 mouse at 500 mg/kg, iv administered as Antitumor B; details: in vivo
[7] = Volume of distribution in C57BL/6 mouse at 500 mg/kg, iv administered as Antitumor B; details: in vivo
[8] = Clearance in C57BL/6 mouse at 500 mg/kg, iv administered as Antitumor B; details: in vivo
[9] = Half life in C57BL/6 mouse at 4000 mg/kg, po; details: in vivo
[10] = Half life in C57BL/6 mouse at 500 mg/kg, ip qd measured after 7 days; details: in vivo, 168 h
[11] = mouse, in vivo, iv, 500 mg/kg, 24 h
[12] = mouse, in vivo, iv, 500 mg/kg
[13] = mouse, in vivo, po, 500 mg/kg
[14] = in vivo, po, 500 mg/kg, 24 h
[15] = in vivo, po, 4000 mg/kg, 24 h
[16] = in vivo, ip, 500 mg/kg, 24 h
[17] = in vivo, ip, 500 mg/kg, 24 h; remark: listed apart in the source
[18] = in vivo, ip, 500 mg/kg, 168 h
[19] = in vivo, ip, 500 mg/kg, 168 h; remark: listed apart in the source
[20] = in vivo; details: C57BL/6, mouse, iv, 500 mg/kg
[21] = in vivo; details: C57BL/6, mouse, iv, 500 mg/kg; remark: listed apart in the source
[22] = in vivo; details: C57BL/6, mouse, po, 500 mg/kg
[23] = in vivo; details: C57BL/6, mouse, po, 500 mg/kg; remark: listed apart in the source
[24] = in vivo; details: C57BL/6, mouse, po, 500 mg/kg; remark: listed apart in the source
[25] = in vivo; details: C57BL/6, mouse, po, 4000 mg/kg
[26] = in vivo; details: C57BL/6, mouse, po, 4000 mg/kg; remark: listed apart in the source
[27] = in vivo; details: C57BL/6, mouse, po, 4000 mg/kg; remark: listed apart in the source
[28] = in vivo; details: C57BL/6, mouse, po, 4000 mg/kg; remark: listed apart in the source
[29] = in vivo; details: C57BL/6, mouse, ip, 500 mg/kg
[30] = in vivo; details: C57BL/6, mouse, ip, 500 mg/kg; remark: listed apart in the source
[31] = in vivo; details: C57BL/6, mouse, ip, 500 mg/kg; remark: listed apart in the source
[32] = in vivo; details: C57BL/6, mouse, ip, 500 mg/kg; remark: listed apart in the source
[33] = Half life in C57BL/6 mouse at 500 mg/kg, po; details: in vivo
[34] = C57BL/6, mouse, in vivo, ip, 500 mg/kg, 168 h
[35] = in vivo; details: C57BL/6, mouse, po, 500 mg/kg; remark: listed apart in the source

For Oc1ccc2c(c1)OCC1c3cc4c(cc3OC21)OCO4 (configuration not stated), the IC50 [1] was 11.5 µg/mL (≈ 40.5 µM), the IC50 [2] was 94.9 µg/mL (≈ 334 µM) and the remaining at 4 h [3] was 85%. It also gave a remaining at 8 h [4] of 85%, a remaining at 2920 h [5] of 85% and a half-life [6] of 4.9 h. The Vd [7] was 4.1 L/kg, the CL ([8]; mouse) was 10 mL/min/kg and the half-life [9] was 3.5 h. The t1/2 ([10]; mouse) was 2.2 h, the AUC [11] was 68.9 ng·h/mL and the AUC [12] was 71.5 ng·h/mL. It also gave an F [13] of 4.6%, an AUC ([14]; mouse) of 0.4 ng·h/mL and an AUC ([15]; mouse) of 25.5 ng·h/mL. The Tmax ([16]; mouse) was 0.2 h, the Cmax ([17]; mouse) was 15.6 ng/mL and the Cmax ([18]; mouse) was 17.2 ng/mL. The AUC ([19]; mouse) was 51.8 ng·h/mL, the Cmax [20] was 67.5 ng/mL and the MRT last [21] was 3 h. For the same molecule, the Tmax [22] was 0.6 h, the Cmax [23] was 0.5 ng/mL and the MRT last [24] was 0.6 h. The Tmax [25] was 0.7 h, the Cmax [26] was 16.4 ng/mL and the AUC(0-inf) [27] was 27.5 ng·h/mL. The MRT last [28] was 3.6 h, the AUC at 24 h [29] was 5.6 ng·h/mL and the AUC at 168 h [30] was 47.4 ng·h/mL. The MRT at 24 h [31] was 0.3 h and the MRT at 168 h [32] was 8.4 h.

Work on COc1c2ccccc2nc2occc12 [DICTAMNINE] yielded an IC50 [1] of 19.7 µg/mL (≈ 98.9 µM), an IC50 [2] of 27.8 µg/mL (≈ 140 µM) and a remaining at 4 h [3] of 85%. It also gave a remaining at 8 h [4] of 85%, a remaining at 2920 h [5] of 85% and a Vd [7] of 0.6 L/kg. The AUC at 24 h [29] was 1 ng·h/mL, the AUC at 168 h [30] was 23.2 ng·h/mL and the MRT at 24 h [31] was 0.4 h. It also gave an MRT at 168 h [32] of 11.7 h.

O=c1[nH]cc(F)c(=O)[nH]1 [FLUOROURACIL] showed an IC50 [1] of 0.5 µg/mL (≈ 3.84 µM) and an IC50 [2] of 12.7 µg/mL (≈ 97.6 µM).

Work on CC1=C2C(=O)O[C@@H](c3ccoc3)[C@]2(C)CCC1 [FRAXINELLONE] yielded an IC50 [1] of 22.4 µg/mL (≈ 96.4 µM), an IC50 [2] of 43.4 µg/mL (≈ 187 µM) and a remaining at 4 h [3] of 85%. For the same molecule, the remaining at 8 h [4] was 85%, the remaining at 2920 h [5] was 85% and the half-life [6] was 5.2 h. The Vd [7] was 2.9 L/kg, the CL ([8]; mouse) was 6.7 mL/min/kg and the AUC [11] was 95.2 ng·h/mL. It also gave an AUC [12] of 166.8 ng·h/mL, an F [13] of 0.2% and an AUC ([15]; mouse) of 1.1 ng·h/mL. The Cmax ([17]; mouse) was 4.1 ng/mL, the Cmax [20] was 34.3 ng/mL and the MRT last [21] was 3.2 h. The Tmax [25] was 0.5 h, the Cmax [26] was 4.7 ng/mL and the MRT last [28] was 0.4 h. It also gave an AUC at 24 h [29] of 2.7 ng·h/mL and an MRT at 24 h [31] of 0.6 h.

With O=C1CCC[C@@H]2[C@H]3CCCN4CCC[C@@H](CN12)[C@@H]34 [MATRINE] the IC50 [1] was 21 µg/mL (≈ 84.6 µM), the IC50 [2] was over 100 µg/mL and the remaining at 4 h [3] was 85%. For the same molecule, the remaining at 8 h [4] was 85%, the remaining at 2920 h [5] was 85% and the half-life [6] was 7.5 h. For the same molecule, the Vd [7] was 9.1 L/kg, the CL ([8]; C57BL/6, mouse) was 13 mL/min/kg and the half-life [33] was 3.8 h. For the same molecule, the half-life [9] was 7.5 h, the t1/2 ([10]; C57BL/6, mouse) was 8.2 h and the AUC [12] was 5170.7 ng·h/mL. The AUC ([14]; C57BL/6, mouse) was 120.5 ng·h/mL, the AUC ([15]; C57BL/6, mouse) was 3667.7 ng·h/mL and the Tmax ([16]; C57BL/6, mouse) was 0.2 h. For the same molecule, the Tmax [34] was 0.5 h, the Cmax ([17]; C57BL/6, mouse) was 815.9 ng/mL and the Cmax ([18]; C57BL/6, mouse) was 551.8 ng/mL. For the same molecule, the AUC ([19]; C57BL/6, mouse) was 2254 ng·h/mL, the Cmax [20] was 3930 ng/mL and the MRT last [21] was 1.8 h. For the same molecule, the Tmax [22] was 0.4 h, the Cmax [23] was 53.8 ng/mL and the AUC(0-inf) [35] was 124 ng·h/mL. For the same molecule, the MRT last [24] was 3.6 h, the Tmax [25] was 0.7 h and the Cmax [26] was 709 ng/mL. It also gave an AUC(0-inf) [27] of 5370 ng·h/mL, an MRT last [28] of 4.5 h and an AUC at 24 h [29] of 1480 ng·h/mL. It also gave an AUC at 168 h [30] of 1650 ng·h/mL, an MRT at 24 h [31] of 5.3 h and an MRT at 168 h [32] of 8 h.
